Data as given in publication PMC10739246 (ACS Bio & Med Chem Au, 2023).
Converted amounts (≈) assume the structure as drawn. “Also recorded” adds a separate entry of the source. Read-outs that look alike come from different tables or passages of the source.

Tests used:
E. coli (W3110) = experiment: MIC, microdilution, E. coli W3110; format: cell-based, Escherichia coli; details: for MIC: Gram-negative strain, average of duplicate experiments, read-out: MIC E. coli (W3110)
[1] = tested on: norfloxacin-resistant clinical isolate of E. coli; experiment: MIC, microdilution, norfloxacin-resistant clinical isolate of E. coli; format: cell-based, Escherichia coli; details: read-out: MIC E. coli (norfloxacin-resistant strain)
P. aeruginosa (PAO1) = experiment: MIC, microdilution, P. aeruginosa PAO1; format: cell-based, Pseudomonas aeruginosa
[2] = tested on: K. pneumoniae (ATCC 10031); experiment: MIC, K. pneumoniae ATCC 10031; format: cell-based, Klebsiella pneumoniae
S. aureus (CCUG1800T) = experiment: MIC, microdilution, S. aureus CCUG1800T; format: cell-based, Staphylococcus aureus; details: read-out: MIC S. aureus (CCUG1800T)
[3] = tested on: S. aureus (ATCC 43300) MRSA; experiment: MIC, microdilution, MRSA ATCC 43300; format: cell-based, Staphylococcus aureus; details: norfloxacin-resistant strain
E. faecalis (ATCC 19433) = experiment: MIC, E. faecalis ATCC 19433; format: cell-based, Enterococcus faecalis
[4] = tested on: M. tuberculosis (MC26020); experiment: microbe, parasite or virus in culture; format: cell-based, Mycobacterium tuberculosis
E. coli W3110 = experiment: Bacterial cytological profiling (BCP) in E. coli W3110; format: cell-based, Escherichia coli
B. subtilis DSM402 [5] = experiment: Bacterial cytological profiling (BCP) in B. subtilis DSM402; format: cell-based, Bacillus subtilis; details: for DAPI / phase contrast / FM4-64: 1x MIC, 1 h; for DAPI: DNA condensation; for phase contrast: indicates cell lysis; for FM4-64: membrane stain; for gyrase inhibition / membrane damage: interpretation of BCP in B. subtilis
[6] = tested on: cell wall biosynthesis in B. subtilis DSM402; experiment: Summary of cell wall synthesis experiments; format: cell-based, Bacillus subtilis
B. subtilis DSM402 [7] = details: for μM (concentration used, 1x MIC): Table 2, cells treated with 1x MIC
E. coli [8] = tested on: E. coli
E. coli BCB472 = experiment: GlpT localization (inner membrane) in E. coli BCB472; details: 1x MIC, 1 h; GFP-tagged membrane protein
B. subtilis DSM402 [9] = experiment: Peptidoglycan integrity assay (acetic acid/methanol fixation); details: 1x MIC; 30 min (cell wall inhibitors) or 60 min
MreB in B. subtilis MW10 = experiment: MreB mobility assay; format: cell-based, Bacillus subtilis; details: B. subtilis MW10, 1 h of antibiotic exposure
Experimental: MreB is an actin homologue that forms filamentous structures along the lateral axis of the cell. It moves along the length of the cells in a spiraling pattern thereby driving lateral peptidoglycan synthesis.[36],[37] MreB mobility is sensitive to inhibition of peptidoglycan synthesis and so far, every cell wall synthesis inhibitor we tested abolished MreB movement (see Figure S70 for examples).
Expression of msfGFP-MreB was induced with 0.3% xylose. Pictures were taken after 1 h of antibiotic exposure. Two images of the same field of view were recorded 30 s apart and overlaid in ImageJ to visualize MreB mobility. A perfect overlap (yellow) indicates stalled MreB movement, while distinct red and green foci are indicative of MreB mobility. Scale bar 2 μm.
Fig. S70: MreB motility in B. subtilis MW10 after treatment with different cell wall synthesis inhibitors. Expression of GFP-MreB was induced with 0.3% xylose. Cells were treated with 1x […]
Two images of the same field of view were recorded 30 sec apart and overlaid in ImageJ to visualize MreB mobility. A perfect overlap (yellow) indicates stalled MreB movement while distinct red and green spots are indicative of MreB mobility. Scale bar 2 µm.

[10] = tested on: MurG in B. subtilis TNVS175; experiment: MurG localization; format: cell-based, Bacillus subtilis; details: 1x MIC; 30 min (vancomycin) or 1 h;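 note: normal MurG forms small membrane spots and peptidoglycan inhibition gives large clusters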
E. coli [11] = experiment: microbe, parasite or virus in culture; details: Escherichia coli, read-out: MICC (MIC of the test compound alone)
[12] = interpretation of BCP in E. coli

**Q.** How did the MIC (E. coli (W3110)) turn out when `CCn1cc(C(=O)O)c(=O)c2cc(F)c(N3CCN(C(=O)CCl)CC3)cc21` [compound 2] was run?
**A.** The MIC was 6.31 µM (≈ 2.5 µg/mL).

**Q.** And the “concentration (MIC against E. coli W3110)” value (E. coli (W3110); Tab. S11, concentrations represent MIC values)?
**A.** The value was 6.31 µM.

**Q.** And the MIC [1]?
**A.** The MIC was >1293.54 µM.

**Q.** What about the MIC (P. aeruginosa (PAO1)) of the same compound?
**A.** The MIC was 192 µM (≈ 76 µg/mL).

**Q.** What about the MIC [2] of the same compound?
**A.** The MIC was 121.27 µM (≈ 48 µg/mL).

**Q.** And the MIC (S. aureus (CCUG1800T))?
**A.** Its MIC is 2.52 µM (≈ 0.997 µg/mL).

**Q.** What about the MIC [3] of the same compound?
**A.** The MIC was 161.69 µM (≈ 64 µg/mL).

**Q.** And the MIC (E. faecalis (ATCC 19433))?
**A.** Its MIC is 6.31 µM (≈ 2.5 µg/mL).

**Q.** What about the “MIC M. tuberculosis (MC26020)” value [4] of the same compound?
**A.** The value was >1293.54 µM.

**Q.** And the DAPI (E. coli W3110; 1x MIC, 1 h, DNA condensation)?
**A.** The DAPI was “condensed”.

**Q.** And the phase contrast (E. coli W3110; 1x MIC, 1 h, indicates cell lysis)?
**A.** Its phase contrast is “dark”.

**Q.** What about the FM4-64 (E. coli W3110; 1x MIC, 1 h, membrane stain) of the same compound?
**A.** The FM4-64 was “smooth”.

**Q.** What about the gyrase inhibition (E. coli W3110; [12]) of the same compound?
**A.** The gyrase inhibition was “yes”.

**Q.** What about the membrane damage (E. coli W3110; [12]) of the same compound?
**A.** The membrane damage was “no”.

**Q.** What about the DAPI (B. subtilis DSM402 [5]) of the same compound?
**A.** The DAPI was “condensed”.

**Q.** What about the phase contrast (B. subtilis DSM402 [5]) of the same compound?
**A.** Its phase contrast is “dark”.

**Q.** And the FM4-64 (B. subtilis DSM402 [5])?
**A.** Its FM4-64 is “smooth”.

**Q.** And the gyrase inhibition (B. subtilis DSM402 [5])?
**A.** Its gyrase inhibition is “yes”.

**Q.** And the membrane damage (B. subtilis DSM402 [5])?
**A.** The membrane damage was “no”.

**Q.** And the “CWB inhibited?” value [6]?
**A.** The value was “no”.

**Q.** What about the “concentration (MIC against B. subtilis DSM402)” value (B. subtilis DSM402 [7]; Tab. S13, concentrations represent MIC values) of the same compound?
**A.** Its value is 1.89 µM.

**Q.** And the “μM (concentration used, 1x MIC)” value (B. subtilis DSM402 [7])?
**A.** The value was 1.89 µM.

**Q.** What about the “FICC (fractional inhibitory concentration of the test compound)” value (E. coli [8]; MICCcheckerboard/MICC) of the same compound?
**A.** The value was 1.25.

**Q.** And the “MICC (MIC of the test compound alone)” value (E. coli [8]; average of at least two replicates)?
**A.** Its value is 2 µg/mL.

**Q.** What about the Outcome (E. coli [8]; checkerboard with mupirocin) of the same compound?
**A.** The Outcome was “additive (>0.5 to ≤4.0 as additive (no interaction))”.

**Q.** What about the “MICCcheckerboard (MIC of the test compound in checkerboard assay)” value (E. coli [8]; combined with mupirocin) of the same compound?
**A.** Its value is 2.5 µg/mL.

**Q.** And the “FICM (MICMcheckerboard/MICM)” value (E. coli [8]; mupirocin alone 64 µg/mL)?
**A.** Its value is 0.2656.

**Q.** What about the “MICMcheckerboard (MIC of mupirocin in checkerboard assay)” value (E. coli [8]; mupirocin combined with the compound of the line) of the same compound?
**A.** The value was 7.8 µg/mL.

**Q.** And the “FICI (fractional inhibitory concentration index)” value (E. coli [8]; with mupirocin, FICC+FICM)?
**A.** Its value is 1.5156.

**Q.** And the GlpT (E. coli BCB472)?
**A.** The GlpT was “smooth”.

**Q.** And the PG integrity (B. subtilis DSM402 [9])?
**A.** Its PG integrity is “came close to the cutoff value; also recorded: intact”.

**Q.** For `C[C@@H]1O[C@@H]1P(=O)(O)O` [Fos, fosfomycin], which MreB mobility (MreB in B. subtilis MW10) is on record?
**A.** Its MreB mobility is “static with foci”.

**Q.** What about the “protein localization MurG” value [10] of the same compound?
**A.** Its value is “patchy/dispersed”.

**Q.** And the “CWB inhibited?” value [6]?
**A.** The value was “yes”.

**Q.** And the “μM (concentration used, 1x MIC)” value (B. subtilis DSM402 [7])?
**A.** The value was 72.43 µM.

**Q.** And the PG integrity (B. subtilis DSM402 [9])?
**A.** The PG integrity was “compromised”.

**Q.** Which results are given for `CCn1cc(C(=O)O)c(=O)c2cc(F)c(N3CCN(CN4C(=O)C(=O)c5cc(C)ccc54)CC3)cc21` [20b]?
**A.** MIC (E. coli (W3110)): 5.07 µM (≈ 2.5 µg/mL); MIC ([1]; norfloxacin-resistant clinical isolate): >1039.59 µM; MIC (P. aeruginosa (PAO1)): 16.24 µM (≈ 8 µg/mL); MIC [2]: 3.04 µM (≈ 1.5 µg/mL); MIC (S. aureus (CCUG1800T)): 32.48 µM (≈ 16 µg/mL); MIC [3]: 259.89 µM (≈ 128 µg/mL); MIC (E. faecalis (ATCC 19433)): 6.09 µM (≈ 3 µg/mL); MIC M. tuberculosis (MC26020) [4]: 129.94 µM (≈ 64 µg/mL)

**Q.** What does the source list for `CCCCCCCCCC(=O)N[C@@H](Cc1c[nH]c2ccccc12)C(=O)N[C@H](CC(N)=O)C(=O)N[C@@H](CC(=O)O)C(=O)N[C@@H]1C(=O)NCC(=O)N[C@@H](CCCN)C(=O)N[C@@H](CC(=O)O)C(=O)N[C@H](C)C(=O)N[C@@H](CC(=O)O)C(=O)NCC(=O)N[C@H](CO)C(=O)N[C@@H]([C@H](C)CC(=O)O)C(=O)N[C@@H](CC(=O)c2ccccc2N)C(=O)O[C@@H]1C` [Dap, daptomycin, reference compound]?
**A.** DAPI (B. subtilis DSM402 [5]): regular; phase contrast (B. subtilis DSM402 [5]): dark; FM4-64 (B. subtilis DSM402 [5]): patchy; gyrase inhibition (B. subtilis DSM402 [5]): no; membrane damage (B. subtilis DSM402 [5]): yes

**Q.** For `C/C(=C\C(=O)OCCCCCCCCC(=O)O)C[C@@H]1OC[C@H](C[C@@H]2O[C@H]2[C@@H](C)[C@H](C)O)[C@@H](O)[C@H]1O` [Mup, mupirocin], which MIC (E. coli [11]) is on record?
**A.** Its MIC is 64 µg/mL.

**Q.** `N[C@@H]1CON=C1O` [D-Cyc, D-cycloserine] was tested. Which MreB mobility (MreB in B. subtilis MW10) did it give?
**A.** The MreB mobility was “static with foci”.

**Q.** And the “protein localization MurG” value [10]?
**A.** Its value is “patchy”.

**Q.** What about the “CWB inhibited?” value [6] of the same compound?
**A.** Its value is “yes”.

**Q.** And the “μM (concentration used, 1x MIC)” value (B. subtilis DSM402 [7])?
**A.** The value was 293.85 µM.

**Q.** What about the PG integrity (B. subtilis DSM402 [9]) of the same compound?
**A.** Its PG integrity is “compromised”.

**Q.** For `NNC(=O)c1ccncc1` [INH, isoniazid, reference compound], which MIC ([4]; Mycobacterium tuberculosis, read-out: MIC M. tuberculosis (MC26020)) is on record?
**A.** The MIC was 1.82 µM (≈ 0.25 µg/mL).
